Values quoted from earlier work in US9023888B2, “Composition of monoterpenoids having bactericidal properties” (priority 2011, dated 2015).

Experiments:
[1] = test system: Staph. aureus; conditions: broth dilution
[2] = test system: E. coli; conditions: for E. coli MBC (v/v %) / E. coli MBC ppm / E. coli MIC (v/v %) / E. coli MIC ppm: broth dilution

SMILES | Staph. aureus MBC (v/v %) [1] | Staph. aureus MBC ppm [1] | Staph. aureus MIC (v/v %) [1] | Staph. aureus MIC ppm [1] | E. coli MBC (v/v %) [2] | E. coli MBC ppm [2] | E. coli MIC (v/v %) [2] | E. coli MIC ppm [2] | antibacterial activity (summary of Table 2 in words) ([2]; E. coli and Staph. aureus data of Table 2)
CC1=CCC(C(C)(C)O)CC1 (centres unmarked) [∝-terpineol] | 0.25 v/v % | 2500 ppm | 0.25 v/v % | 2500 ppm | 0.06 v/v % | 600 ppm | 0.06 v/v % | 600 ppm | –
Cc1ccc(C(C)C)cc1 [p-cymene] | >8.0 v/v % | No level | >8.0 v/v % | No level | >8.0 v/v % | No level | >8.0 v/v % | No level | no effect at all
